Experimental data published in PubChem BioAssay (NCI).
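In this assay, cells in 96-well plates receive the compound at five concentrations for 48 hours. Endpoints are linearly interpolated between the surrounding concentrations. GI50: concentration for 50% inhibition of growth. TGI: total growth inhibition.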

How the values were obtained:
Experiment in all cases: DTP human tumour cell line panel, 48 h
SN12C renal = tested on: SN12C renal
SNB-19 CNS = tested on: SNB-19 CNS
HOP-62 NSCLC = tested on: HOP-62 NSCLC
SR leukemia = tested on: SR leukemia
SK-MEL-28 melanoma = tested on: SK-MEL-28 melanoma
A498 renal = tested on: A498 renal
SK-MEL-5 melanoma = tested on: SK-MEL-5 melanoma
OVCAR-8 ovarian = tested on: OVCAR-8 ovarian
HOP-92 NSCLC = tested on: HOP-92 NSCLC
SW-620 colon = tested on: SW-620 colon
NCI/ADR-RES ovarian = tested on: NCI/ADR-RES ovarian
CAKI-1 renal = tested on: CAKI-1 renal
HL-60(TB) leukemia = tested on: HL-60(TB) leukemia
OVCAR-3 ovarian = tested on: OVCAR-3 ovarian
BT-549 breast = tested on: BT-549 breast
ACHN renal = tested on: ACHN renal
EKVX NSCLC = tested on: EKVX NSCLC
HS 578T breast = tested on: HS 578T breast
U251 CNS = tested on: U251 CNS
786-0 renal = tested on: 786-0 renal
CCRF-CEM leukemia = tested on: CCRF-CEM leukemia
LOX IMVI melanoma = tested on: LOX IMVI melanoma
UACC-62 melanoma = tested on: UACC-62 melanoma
RPMI-8226 leukemia = tested on: RPMI-8226 leukemia
SNB-75 CNS = tested on: SNB-75 CNS
SF-268 CNS = tested on: SF-268 CNS
COLO 205 colon = tested on: COLO 205 colon
IGROV1 ovarian = tested on: IGROV1 ovarian
SK-MEL-2 melanoma = tested on: SK-MEL-2 melanoma
NCI-H460 lung = tested on: NCI-H460 lung
SK-OV-3 ovarian = tested on: SK-OV-3 ovarian
TK-10 renal = tested on: TK-10 renal
OVCAR-5 ovarian = tested on: OVCAR-5 ovarian
KM12 colon = tested on: KM12 colon
DU-145 prostate = tested on: DU-145 prostate
OVCAR-4 ovarian = tested on: OVCAR-4 ovarian
MDA-MB-435 = tested on: MDA-MB-435
NCI-H23 lung = tested on: NCI-H23 lung
MALME-3M melanoma = tested on: MALME-3M melanoma
NCI-H226 lung = tested on: NCI-H226 lung
UACC-257 melanoma = tested on: UACC-257 melanoma
SF-539 CNS = tested on: SF-539 CNS
UO-31 renal = tested on: UO-31 renal
T-47D breast = tested on: T-47D breast
HCT-116 colon = tested on: HCT-116 colon
HT29 colon = tested on: HT29 colon
M14 melanoma = tested on: M14 melanoma
HCC-2998 colon = tested on: HCC-2998 colon
K-562 leukemia = tested on: K-562 leukemia
A549 NSCLC = tested on: A549 NSCLC
HCT-15 colon = tested on: HCT-15 colon
SF-295 CNS = tested on: SF-295 CNS
PC-3 prostate = tested on: PC-3 prostate
RXF 393 renal = tested on: RXF 393 renal
MCF7 breast = tested on: MCF7 breast
NCI-H522 lung = tested on: NCI-H522 lung
MDA-MB-231 breast = tested on: MDA-MB-231 breast

For `CCCCCCCCCCCCCCCCNC(=O)OC(C)C`, the GI50 (SN12C renal) was 4.53 µM, the TGI (SN12C renal) was 17 µM and the GI50 (SNB-19 CNS) was 5.48 µM. It also gave a TGI (SNB-19 CNS) of 16.3 µM, a GI50 (HOP-62 NSCLC) of 5.11 µM and a TGI (HOP-62 NSCLC) of 11.2 µM. The GI50 (SR leukemia) was 1.56 µM, the TGI (SR leukemia) was 5.01 µM and the GI50 (SK-MEL-28 melanoma) was 13.5 µM. It also gave a TGI (SK-MEL-28 melanoma) of 27.1 µM, a GI50 (A498 renal) of 0.37 µM and a TGI (A498 renal) of 5.95 µM. For the same molecule, the GI50 (SK-MEL-5 melanoma) was 12.3 µM, the TGI (SK-MEL-5 melanoma) was 27.8 µM and the GI50 (OVCAR-8 ovarian) was 3.82 µM. It also gave a TGI (OVCAR-8 ovarian) of 18 µM, a GI50 (HOP-92 NSCLC) of 3.02 µM and a TGI (HOP-92 NSCLC) of 13.7 µM. For the same molecule, the GI50 (SW-620 colon) was 1.46 µM, the TGI (SW-620 colon) was 2.87 µM and the GI50 (NCI/ADR-RES ovarian) was 3.34 µM. For the same molecule, the TGI (NCI/ADR-RES ovarian) was 13.6 µM, the GI50 (CAKI-1 renal) was 2.03 µM and the TGI (CAKI-1 renal) was 4.75 µM. For the same molecule, the GI50 (HL-60(TB) leukemia) was 2.01 µM, the TGI (HL-60(TB) leukemia) was 5.56 µM and the GI50 (OVCAR-3 ovarian) was 1.99 µM. It also gave a TGI (OVCAR-3 ovarian) of 3.89 µM, a GI50 (BT-549 breast) of 21.9 µM and a TGI (BT-549 breast) of 55.9 µM. The GI50 (ACHN renal) was 2.16 µM, the TGI (ACHN renal) was 5.24 µM and the GI50 (EKVX NSCLC) was 2.35 µM. For the same molecule, the TGI (EKVX NSCLC) was 6.44 µM, the GI50 (HS 578T breast) was 2.19 µM and the TGI (HS 578T breast) was 16.5 µM. The GI50 (U251 CNS) was 1.96 µM, the TGI (U251 CNS) was 3.67 µM and the GI50 (786-0 renal) was 9.38 µM. The TGI (786-0 renal) was 29.4 µM, the GI50 (CCRF-CEM leukemia) was 2.31 µM and the TGI (CCRF-CEM leukemia) was 6.2 µM. It also gave a GI50 (LOX IMVI melanoma) of 1.61 µM, a TGI (LOX IMVI melanoma) of 2.97 µM and a GI50 (UACC-62 melanoma) of 6.04 µM. It also gave a TGI (UACC-62 melanoma) of 19 µM, a GI50 (RPMI-8226 leukemia) of 5.22 µM and a TGI (RPMI-8226 leukemia) of 40.8 µM. It also gave a GI50 (SNB-75 CNS) of 5.74 µM, a TGI (SNB-75 CNS) of 18.1 µM and a GI50 (SF-268 CNS) of 2.73 µM. It also gave a TGI (SF-268 CNS) of 8 µM, a GI50 (COLO 205 colon) of 1.95 µM and a TGI (COLO 205 colon) of 3.61 µM. The GI50 (IGROV1 ovarian) was 2.27 µM, the TGI (IGROV1 ovarian) was 5 µM and the GI50 (SK-MEL-2 melanoma) was 2.43 µM. For the same molecule, the TGI (SK-MEL-2 melanoma) was 6.15 µM, the GI50 (NCI-H460 lung) was 1.11 µM and the TGI (NCI-H460 lung) was 2.46 µM. For the same molecule, the GI50 (SK-OV-3 ovarian) was 5.7 µM, the TGI (SK-OV-3 ovarian) was 14.3 µM and the GI50 (TK-10 renal) was 2.09 µM. For the same molecule, the TGI (TK-10 renal) was 4.48 µM, the GI50 (OVCAR-5 ovarian) was 2.81 µM and the TGI (OVCAR-5 ovarian) was 8.39 µM. The GI50 (KM12 colon) was 1.83 µM, the TGI (KM12 colon) was 3.5 µM and the GI50 (DU-145 prostate) was 1.81 µM. It also gave a TGI (DU-145 prostate) of 3.41 µM, a GI50 (OVCAR-4 ovarian) of 2.01 µM and a TGI (OVCAR-4 ovarian) of 4.37 µM. It also gave a GI50 (MDA-MB-435) of 2.55 µM, a TGI (MDA-MB-435) of 6.93 µM and a GI50 (NCI-H23 lung) of 3.04 µM. It also gave a TGI (NCI-H23 lung) of 10.3 µM, a GI50 (MALME-3M melanoma) of 2.89 µM and a TGI (MALME-3M melanoma) of 9.24 µM. It also gave a GI50 (NCI-H226 lung) of 3.56 µM, a TGI (NCI-H226 lung) of 14.1 µM and a GI50 (UACC-257 melanoma) of 13.2 µM. It also gave a TGI (UACC-257 melanoma) of 28.8 µM, a GI50 (SF-539 CNS) of 5.15 µM and a TGI (SF-539 CNS) of 12.7 µM. The GI50 (UO-31 renal) was 1.54 µM, the TGI (UO-31 renal) was 3.38 µM and the GI50 (T-47D breast) was 3.79 µM. The TGI (T-47D breast) was 12.6 µM, the GI50 (HCT-116 colon) was 1.96 µM and the TGI (HCT-116 colon) was 4.17 µM. The GI50 (HT29 colon) was 1.65 µM, the TGI (HT29 colon) was 3.12 µM and the GI50 (M14 melanoma) was 3.5 µM. For the same molecule, the TGI (M14 melanoma) was 14.4 µM, the GI50 (HCC-2998 colon) was 2.56 µM and the TGI (HCC-2998 colon) was 6.22 µM. The GI50 (K-562 leukemia) was 2.14 µM, the TGI (K-562 leukemia) was 5.86 µM and the GI50 (A549 NSCLC) was 1.95 µM. For the same molecule, the TGI (A549 NSCLC) was 3.82 µM, the GI50 (HCT-15 colon) was 2.35 µM and the TGI (HCT-15 colon) was 6.79 µM. The GI50 (SF-295 CNS) was 2.11 µM, the TGI (SF-295 CNS) was 5.81 µM and the GI50 (PC-3 prostate) was 2.45 µM. For the same molecule, the TGI (PC-3 prostate) was 7.53 µM, the GI50 (RXF 393 renal) was 8.07 µM and the TGI (RXF 393 renal) was 26.6 µM. It also gave a GI50 (MCF7 breast) of 1.88 µM, a TGI (MCF7 breast) of 3.53 µM and a GI50 (NCI-H522 lung) of 2.01 µM. For the same molecule, the TGI (NCI-H522 lung) was 4.62 µM, the GI50 (MDA-MB-231 breast) was 2.37 µM and the TGI (MDA-MB-231 breast) was 5.41 µM.
